Target: human recombinant, purified wild type His-B-Raf protein kinase (Homo sapiens, UniProt P15056)
Assay: B-Raf in vitro ELISA assay
Format: biochemical
Details: phosphorylation of MEK1; 2.5 nM B-Raf, 0.15 µM MEK1, 10 µM ATP
From the text: Data was graphed and IC50s calculated using Excel Fit (Microsoft).

Chain of human recombinant, purified wild type His-B-Raf protein kinase (P15056 whole entry): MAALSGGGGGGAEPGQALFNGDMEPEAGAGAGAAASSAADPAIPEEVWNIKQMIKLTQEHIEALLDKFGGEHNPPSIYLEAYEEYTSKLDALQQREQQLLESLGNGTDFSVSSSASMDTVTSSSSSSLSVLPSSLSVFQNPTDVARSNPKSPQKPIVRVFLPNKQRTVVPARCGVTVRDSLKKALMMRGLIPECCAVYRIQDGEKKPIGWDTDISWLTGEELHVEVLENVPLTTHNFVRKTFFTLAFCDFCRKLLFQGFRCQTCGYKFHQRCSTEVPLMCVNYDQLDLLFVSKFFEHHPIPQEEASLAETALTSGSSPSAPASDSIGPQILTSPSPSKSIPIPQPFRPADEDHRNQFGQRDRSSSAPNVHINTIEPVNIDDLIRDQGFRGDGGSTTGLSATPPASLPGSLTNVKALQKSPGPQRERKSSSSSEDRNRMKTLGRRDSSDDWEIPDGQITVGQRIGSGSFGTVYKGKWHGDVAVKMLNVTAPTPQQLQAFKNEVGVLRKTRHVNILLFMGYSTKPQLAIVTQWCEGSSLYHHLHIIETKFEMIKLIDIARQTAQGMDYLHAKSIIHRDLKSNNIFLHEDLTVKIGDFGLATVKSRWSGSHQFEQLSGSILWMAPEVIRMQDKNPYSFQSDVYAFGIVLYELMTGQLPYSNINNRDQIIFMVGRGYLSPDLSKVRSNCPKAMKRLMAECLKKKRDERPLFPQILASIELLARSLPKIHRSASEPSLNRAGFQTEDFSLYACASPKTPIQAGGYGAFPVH

IC50: 1080 nM
Compound: Cc1ccc(NC(=O)c2cccc3c2OCC3)cc1C(=O)Nc1cccnc1 [Example 9, N-{4-Methyl-3-[(pyridin-3-ylamino)carbonyl]phenyl}-2,3-dihydro-1-benzofuran-7-carboxamide]

Reference: patent publication EP1831198B1, “PYRIDINE CARBOXAMIDE DERIVATIVES FOR USE AS ANTICANCER AGENTS” (AstraZeneca AB, priority 2004, dated 2006)
